Bounds are passed on as bounds.

From patent US20070020140A1, “Decontamination of biological microbes using metal cations suspended in ethanol” (priority 2005, published 2007) come the findings set out here.

The test system of experiment [1] is Bacillus atrophaeus subspecies globigii spores. The experiment is described as follows: Assay to quantify spore kills, dry-prepared Bg spores (section 2). It counts as cell-based. The note with it: 0.5 M, 15 minutes at 25° C., FIG. 4.
The next experiment has as its system Bacillus cereus spores. The experiment is described as follows: Assay to quantify spore kills, wet-prepared Bc spores (section 2). It is filed as cell-based, B. cereus RSVF1, ATCC 4342. The note with it: FIG. 5.
In experiment [2] the test system is B. atrophaeus subspecies globigii spores. It is filed as cell-based, Bacillus atrophaeus subspecies globigii. To be noted: 0.5 M in water. On the procedure: Dry-prepared spores of non-pathogenic B. atrophaeus subspecies globigii (B. globigii or Bg) were prepared at the Army's Dugway Proving Ground to mimic a bio-weapon, and they are used for bio-weapons studies, including the following experiments. The assay for decontamination experiments was performed with 3-4 replicates and many experiments were reproduced numerous times. The assay included the steps of (1) suspending Bg spores in the appropriate solvent (water or ethanol) at a concentration of 2 mg spores/ml (approximately 2×10^8 spores/ml) with starting volume of over 1 ml of spores at 2 mg/ml; (2) removing 3 or 4 spore aliquots of 50 ul per aliquot with each aliquot serially diluted in 1x PBS and plated on Luria-Bertani (LB) or Tryptic Soy (TSA) agar plates (this is a control step that gave the spore titer or colony-forming units (CFUs) at Time=0 minutes (T0)); (3) placing the appropriate decontamination solution (2x concentration) aliquoted into each of 3 or 4 eppendorf tubes with 200 ul per tube and then 200 ul of spores were added and mixed to give a final concentration of 1x decontamination solution and 1 mg spores/ml; (4) the spores in decontamination solution were then mixed and incubated for specific time periods and temperatures. A typical incubation was in a room temperature (25° C.) water bath for 30 (or 60) minutes (no agitation was performed during the incubation period in order to mimic real world situations); (5) aliquots of spores from the 3 or 4 replicates were removed after 30 (or 60) minutes with the aliquots serially diluted in 1x PBS and plated on LB or TSA agar plates which gave a CFU at Time=30 minutes (T30) (the titer of live spores after the decontamination test); (6) after removing the aliquots at the 30-minute time point, some test samples were then immediately incubated in a 70° C. water bath for another 30 minutes, the samples were then serially diluted and plated on to LB agar plates to determine the titer after the 70° C. incubation.

Where [3] appears, read: 0.5 M in 50%, 75% and 90% ethanol, 15 minutes at 25° C.
Setting [4] is: 60 minutes at 25° C., ten out of the thirteen experiments.
Setting [5] is: additional 30 minutes at 70° C., pH-neutralized to pH 7-8, all 11 experiments.

Take `[Cl-].[Cl-].[Zn+2]` [Zn^+2, ZnCl2]: the CFU reduction entry in experiment [1] (in 50% ethanol) is reported as “greater than two logs”. In the experiment with Bacillus cereus spores (0.5 M in 50% and 75% ethanol, 15 minutes at 25° C.), the “activity against Bc spores” value is given as “slight activity”.
Regarding `O.O.[Ca+2].[Cl-].[Cl-]` [Ca^+2, CaCl2-2H2O], the “effect on Bg spores” value in experiment [1] (regardless of the solvent (water, 25-90% ethanol)) is “no affect”. For the same molecule, the “effect on Bc spores” value with Bacillus cereus spores (0.5 M in water, 25%, 50%, 75% or 90% ethanol, 15 minutes at 25° C.) was “no affect”.
Turning to `[Cl][Cu][Cl]` [Cu^+2, copper chloride], in experiment [1] (in 50%, 75% and 90% ethanol), the “activity against Bg spores” value was “strongest activity”. The “activity against Bc spores” value with Bacillus cereus spores (setting [3]) was “strong activity”. Besides, in experiment [2] (setting [4]), the log spore kill is > 1 log and the spore kills result is “greater than 92%”. Also, in experiment [2] (setting [5]), the kill of spores amounted to 100% and the logs of kill was > 7 logs.
Take `O.O.O.O.O.O.[Cl-].[Cl-].[Cl-].[Fe+3]` [Fe^+3, FeCl3·6H2O]: the CFU reduction entry in experiment [1] (in water and at any ethanol concentration) is “greater than three logs”. In the experiment on Bacillus cereus spores (setting [3]), the “CFU reduction (logs)” value is reported as “greater than three logs” and the “CFU reduction (percent)” value is listed as > 99.9%. For the same molecule, the “CFU reduced relative to the control” value with Bacillus cereus spores (0.5 M in water, within 15 minutes) is “less than half a log”.
